# In patent US20210254056A1, “IDENTIFICATION AND TARGETED MODULATION OF GENE SIGNALING NETWORKS” (CAMP4 THERAPEUTICS CORPORATION, priority 2017, published 2021):
# Tested on: hepatocytes
# Experiment: RNA-seq of hepatocytes treated with Phase III failure compounds
# Experimental: RNA-seq was performed to determine the effects of the compounds on hepatocytes.
# Significance was determined by the criteria of FPKM≥0.5, a log 2(fold-change)≥1, and a […].
smiles,measurement,setting,value
"CCC(CC)[C@H](NC(C)=O)[C@@H]1[C@H](O)[C@@H](C(=O)O)C[C@H]1NC(=N)N.O.O.O [peramivir (trihydrate), peramivir]","RNA-seq results, gene PFKM",PFKM expression in hepatocytes,0.02
same,"RNA-seq results, gene PGM1",PGM1 expression in hepatocytes,0.01
same,"RNA-seq results, gene PHGDH",PHGDH expression in hepatocytes,0.67
same,"RNA-seq results, gene PHKA1",PHKA1 expression in hepatocytes,0.42
same,"RNA-seq results, gene PHKA2",PHKA2 expression in hepatocytes,−0.03
same,"RNA-seq results, gene PHKB",PHKB expression in hepatocytes,−0.06
same,"RNA-seq results, gene PHYH",PHYH expression in hepatocytes,−0.05
same,"RNA-seq results, gene PIEZO1",PIEZO1 expression in hepatocytes,0.08
same,"RNA-seq results, gene PIGA",PIGA expression in hepatocytes,−0.01
same,"RNA-seq results, gene PIGM",PIGM expression in hepatocytes,0.04
same,"RNA-seq results, gene PKD1",PKD1 expression in hepatocytes,0.39
same,"RNA-seq results, gene PKD2",PKD2 expression in hepatocytes,−0.13
same,"RNA-seq results, gene PKHD1",PKHD1 expression in hepatocytes,−0.79
same,"RNA-seq results, gene PKLR",PKLR expression in hepatocytes,0.01
same,"RNA-seq results, gene PLA2G6",PLA2G6 expression in hepatocytes,0.31
same,"RNA-seq results, gene PLEKHM1",PLEKHM1 expression in hepatocytes,0.52
same,"RNA-seq results, gene PMVK",PMVK expression in hepatocytes,0.33
same,"RNA-seq results, gene PNP",PNP expression in hepatocytes,0.05
same,"RNA-seq results, gene PNPLA2",PNPLA2 expression in hepatocytes,0.19
same,significant modulation of expression of disease genes,"RNA-seq, q≤0.05, hepatocytes, genes in the value or listed in the block",significantly (q≤0.05) modulate expression of RMRP
same,RNA-seq results: A1BG expression,"gene A1BG, hepatocytes",0.02
same,RNA-seq results: AARS2 expression,"gene AARS2, hepatocytes",0.27
same,RNA-seq results: AASS expression,"gene AASS, hepatocytes",−0.12
same,RNA-seq results: ABAT expression,"gene ABAT, hepatocytes",−0.09
same,RNA-seq results: ABCA1 expression,"gene ABCA1, hepatocytes",−0.04
same,RNA-seq results: ABCB4 expression,"gene ABCB4, hepatocytes",0.01
same,RNA-seq results: ABCB11 expression,"gene ABCB11, hepatocytes",0.20
same,RNA-seq results: ABCC2 expression,"gene ABCC2, hepatocytes",0.02
same,RNA-seq results: ABCC3 expression,"gene ABCC3, hepatocytes",0.32
same,RNA-seq results: ABCC6 expression,"gene ABCC6, hepatocytes",0.47
same,RNA-seq results: ABCD1 expression,"gene ABCD1, hepatocytes",0.25
same,RNA-seq results: ABCD3 expression,"gene ABCD3, hepatocytes",−0.28
same,RNA-seq results: ABCG5 expression,"gene ABCG5, hepatocytes",0.09
same,RNA-seq results: ABCG8 expression,"gene ABCG8, hepatocytes",0.06
same,RNA-seq results: ABHD5 expression,"gene ABHD5, hepatocytes",−0.22
same,RNA-seq results: ACACA expression,"gene ACACA, hepatocytes",0.04
same,RNA-seq results: ACACB expression,"gene ACACB, hepatocytes",0.36
same,RNA-seq results: ACAD9 expression,"gene ACAD9, hepatocytes",0.00
same,RNA-seq results: ACADSB expression,"gene ACADSB, hepatocytes",−0.29
same,RNA-seq results: ACADVL expression,"gene ACADVL, hepatocytes",0.30
same,RNA-seq results: ACOT8 expression,"gene ACOT8, hepatocytes",−0.13
same,RNA-seq results: ACOX2 expression,"gene ACOX2, hepatocytes",−0.03
same,RNA-seq results: ACOX3 expression,"gene ACOX3, hepatocytes",−0.01
same,RNA-seq results: ACSF3 expression,"gene ACSF3, hepatocytes",0.08
same,RNA-seq results: ACSL1 expression,"gene ACSL1, hepatocytes",−0.03
same,RNA-seq results: ACSL3 expression,"gene ACSL3, hepatocytes",−0.34
same,RNA-seq results: ACTG2 expression,"gene ACTG2, hepatocytes",−1.66
same,RNA-seq results: ACTN1 expression,"gene ACTN1, hepatocytes",−0.03
same,RNA-seq results: ADA expression,"gene ADA, hepatocytes",0.16
same,RNA-seq results: ADCK3 expression,"gene ADCK3, hepatocytes",−0.02
same,RNA-seq results: ADK expression,"gene ADK, hepatocytes",−0.46
same,RNA-seq results: ADSL expression,"gene ADSL, hepatocytes",−0.36
same,RNA-seq results: AFP expression,"gene AFP, hepatocytes",−0.31
same,RNA-seq results: AGK expression,"gene AGK, hepatocytes",−0.24
same,RNA-seq results: AGL expression,"gene AGL, hepatocytes",−0.20
same,RNA-seq results: AGPAT2 expression,"gene AGPAT2, hepatocytes",0.36
same,RNA-seq results: AGPS expression,"gene AGPS, hepatocytes",−0.31
same,RNA-seq results: AGT expression,"gene AGT, hepatocytes",−0.08
same,RNA-seq results: AGTR1 expression,"gene AGTR1, hepatocytes",−0.40
same,RNA-seq results: AGXT expression,"gene AGXT, hepatocytes",0.44
same,RNA-seq results: AHI1 expression,"gene AHI1, hepatocytes",−0.18
same,RNA-seq results: AHSG expression,"gene AHSG, hepatocytes",0.03
same,RNA-seq results: AK1 expression,"gene AK1, hepatocytes",−0.06
same,RNA-seq results: AKR1C1 expression,"gene AKR1C1, hepatocytes",−0.24
same,RNA-seq results: AKR1C2 expression,"gene AKR1C2, hepatocytes",0.07
same,RNA-seq results: AKR1C4 expression,"gene AKR1C4, hepatocytes",−0.41
same,RNA-seq results: AKR1D1 expression,"gene AKR1D1, hepatocytes",−0.04
same,RNA-seq results: ALAD expression,"gene ALAD, hepatocytes",0.07
same,RNA-seq results: ALAS1 expression,"gene ALAS1, hepatocytes",−0.13
same,RNA-seq results: ALDH1B1 expression,"gene ALDH1B1, hepatocytes",0.10
same,RNA-seq results: ALDH2 expression,"gene ALDH2, hepatocytes",0.07
same,RNA-seq results: ALDH6A1 expression,"gene ALDH6A1, hepatocytes",−0.48
same,RNA-seq results: ALDOA expression,"gene ALDOA, hepatocytes",0.01
same,RNA-seq results: ALDOB expression,"gene ALDOB, hepatocytes",−0.08
same,RNA-seq results: ALG12 expression,"gene ALG12, hepatocytes",0.02
same,RNA-seq results: ALMS1 expression,"gene ALMS1, hepatocytes",−0.05
same,RNA-seq results: ALPL expression,"gene ALPL, hepatocytes",−0.08
same,RNA-seq results: AMACR expression,"gene AMACR, hepatocytes",−0.17
same,RNA-seq results: AMPD3 expression,"gene AMPD3, hepatocytes",0.13
same,RNA-seq results: AMT expression,"gene AMT, hepatocytes",0.24
same,RNA-seq results: ANGPTL3 expression,"gene ANGPTL3, hepatocytes",−0.42
same,RNA-seq results: ANKS4B expression,"gene ANKS4B, hepatocytes",−0.06
same,RNA-seq results: ANKS6 expression,"gene ANKS6, hepatocytes",0.15
same,RNA-seq results: ANPEP expression,"gene ANPEP, hepatocytes",0.07
same,RNA-seq results: AOC2 expression,"gene AOC2, hepatocytes",0.42
same,RNA-seq results: AP3B1 expression,"gene AP3B1, hepatocytes",−0.40
same,RNA-seq results: APC expression,"gene APC, hepatocytes",−0.20
same,RNA-seq results: APOA1 expression,"gene APOA1, hepatocytes",−0.02
same,RNA-seq results: APOA2 expression,"gene APOA2, hepatocytes",−0.52
same,RNA-seq results: APOA5 expression,"gene APOA5, hepatocytes",0.13
same,RNA-seq results: APOB expression,"gene APOB, hepatocytes",−0.10
same,RNA-seq results: APOC2 expression,"gene APOC2, hepatocytes",−0.17
same,RNA-seq results: APOC3 expression,"gene APOC3, hepatocytes",−0.06
same,RNA-seq results: APOE expression,"gene APOE, hepatocytes",0.04
same,RNA-seq results: APRT expression,"gene APRT, hepatocytes",0.23
same,RNA-seq results: AQP7 expression,"gene AQP7, hepatocytes",−0.41
same,RNA-seq results: AQP9 expression,"gene AQP9, hepatocytes",−0.29
same,RNA-seq results: ARG1 expression,"gene ARG1, hepatocytes",0.02
same,RNA-seq results: ARG2 expression,"gene ARG2, hepatocytes",−0.34
same,RNA-seq results: ARL13B expression,"gene ARL13B, hepatocytes",−0.24
same,RNA-seq results: ARSA expression,"gene ARSA, hepatocytes",0.49
same,RNA-seq results: ARSB expression,"gene ARSB, hepatocytes",0.03
same,RNA-seq results: ASL expression,"gene ASL, hepatocytes",0.25
same,RNA-seq results: ASNS expression,"gene ASNS, hepatocytes",−0.22
same,RNA-seq results: ASPA expression,"gene ASPA, hepatocytes",−0.10
same,RNA-seq results: ASXL1 expression,"gene ASXL1, hepatocytes",0.09
same,RNA-seq results: ATG7 expression,"gene ATG7, hepatocytes",−0.05
same,RNA-seq results: ATIC expression,"gene ATIC, hepatocytes",−0.26
same,RNA-seq results: ATM expression,"gene ATM, hepatocytes",0.16
same,RNA-seq results: ATP7A expression,"gene ATP7A, hepatocytes",−0.27
same,RNA-seq results: ATP7B expression,"gene ATP7B, hepatocytes",0.00
same,RNA-seq results: ATP8B1 expression,"gene ATP8B1, hepatocytes",−0.26
same,RNA-seq results: B2M expression,"gene B2M, hepatocytes",−0.52
same,RNA-seq results: B9D2 expression,"gene B9D2, hepatocytes",0.35
same,RNA-seq results: BAAT expression,"gene BAAT, hepatocytes",−0.23
same,RNA-seq results: BBOX1 expression,"gene BBOX1, hepatocytes",−0.71
same,RNA-seq results: BBS10 expression,"gene BBS10, hepatocytes",−0.36
same,RNA-seq results: BCHE expression,"gene BCHE, hepatocytes",−0.32
same,RNA-seq results: BCKDHB expression,"gene BCKDHB, hepatocytes",−0.10
